Counter-ions that a name gives are not always drawn.
Molecular target: T1, human mGluR5 (Homo sapiens, UniProt P41594)
T1 construct: expressed in transfected cells
Assay: Experiment for receptor function of mGluR5 (Ca2+-dependent fluorescence, FLIPR, CHO-K1 cells stably expressing human mGluR5)
Type: cell-based
Details: L-glutamic acid 10 μM, Fluo-4 fluorescence
Experimental: Stable expression cells in which the human mGluR5 gene had been introduced into a Chinese hamster ovary cell (CHO-K1) were used for evaluation. The cells were suspended in a growth medium (MEM-α (D8042, available from Sigma) containing 10% inactivated FBS (Cat. No. 171012, available from CCB) and 2 mM glutamax (Cat. No. 35050, available from GIBCO)) and seeded on a black clear-bottom 96-well plate at 100,000 cells per well. One day after seeding, the medium was replaced by a medium (Hanks' balanced salt solution (HBSS buffer solution) (20 mM HEPES, 2.5 mM probencide (165-15472, available from Wako Pure Chemical Industries, Ltd.), and 10×HBSS (14065-056, available from Gibco) diluted 10 times, pH 7.4)) containing a calcium-sensitive dye Fluo-4 AM at a final concentration of […] (F312, available from Dojindo Laboratories) and Pluronic F-127 at a final concentration of 0.0145% (P-2443, available from Sigma), followed by incubation at 37° C. for one hour, thereby loading Fluo-4 AM into the cells.
Subsequently, the cells were washed twice with an HBSS buffer solution, to which was subsequently added the same buffer solution. Twenty minutes thereafter, the plate was transferred into a fluorescence screening system (FLIPR TETRA, available from Molecular Devices, LLC) and measured for a Ca^2+-dependent fluorescence change in the cells.
First of all, a fluorescence baseline was measured, and thereafter, fluorescence measurement was performed for 2 minutes while adding a test substance, an excessive amount of 6-methyl-2-(phenylethynyl)pyridine (hereinafter referred to as “MPEP”) (final concentration: 10 μM), or the medium. Thereafter, fluorescence measurement was carried out for one minute while adding L-glutamic acid (final concentration: 10 μM).
While taking a fluorescence intensity caused by L-glutamic acid as 100% and a fluorescence intensity caused by L-glutamic acid in the presence of MPEP as 0%, respectively, function inhibitory activity against human mGluR5 was evaluated from the fluorescence intensity caused by L-glutamic acid in the presence of the test substance at each concentration, and an IC50 value was estimated according to a logistic equation (SAS System).

T1 sequence (P41594 21-1212): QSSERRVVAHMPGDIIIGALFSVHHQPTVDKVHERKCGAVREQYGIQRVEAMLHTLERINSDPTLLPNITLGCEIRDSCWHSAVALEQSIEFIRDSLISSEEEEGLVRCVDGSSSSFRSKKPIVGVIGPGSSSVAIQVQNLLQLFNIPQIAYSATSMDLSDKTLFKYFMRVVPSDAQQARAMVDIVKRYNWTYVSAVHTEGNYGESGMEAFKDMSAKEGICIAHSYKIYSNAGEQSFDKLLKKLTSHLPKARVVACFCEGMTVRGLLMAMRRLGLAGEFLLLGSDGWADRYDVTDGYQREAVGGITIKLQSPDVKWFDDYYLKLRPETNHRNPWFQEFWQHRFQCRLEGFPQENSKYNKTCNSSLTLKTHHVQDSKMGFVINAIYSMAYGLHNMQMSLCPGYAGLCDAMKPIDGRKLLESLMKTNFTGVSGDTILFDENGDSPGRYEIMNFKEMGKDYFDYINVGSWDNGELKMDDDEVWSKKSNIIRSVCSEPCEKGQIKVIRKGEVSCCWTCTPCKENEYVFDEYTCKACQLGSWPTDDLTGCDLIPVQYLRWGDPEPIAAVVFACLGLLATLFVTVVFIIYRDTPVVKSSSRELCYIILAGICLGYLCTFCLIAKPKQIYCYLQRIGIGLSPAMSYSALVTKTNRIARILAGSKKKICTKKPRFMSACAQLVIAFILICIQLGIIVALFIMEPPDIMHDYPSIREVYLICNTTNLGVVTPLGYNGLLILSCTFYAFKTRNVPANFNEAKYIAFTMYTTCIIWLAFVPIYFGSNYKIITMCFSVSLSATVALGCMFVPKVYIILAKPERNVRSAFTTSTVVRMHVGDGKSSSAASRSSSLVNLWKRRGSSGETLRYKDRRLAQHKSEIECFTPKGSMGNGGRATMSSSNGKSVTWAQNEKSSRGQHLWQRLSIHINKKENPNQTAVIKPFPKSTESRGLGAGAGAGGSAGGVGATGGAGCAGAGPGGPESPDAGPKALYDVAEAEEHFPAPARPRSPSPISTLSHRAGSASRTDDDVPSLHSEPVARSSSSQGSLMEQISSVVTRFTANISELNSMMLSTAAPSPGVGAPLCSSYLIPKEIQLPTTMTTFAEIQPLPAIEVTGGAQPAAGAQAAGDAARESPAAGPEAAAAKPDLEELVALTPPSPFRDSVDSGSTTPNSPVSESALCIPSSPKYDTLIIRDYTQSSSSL

Row | IC50 [nM] | SMILES
1 | 144 | c1ccc(COc2cc(-c3cccnc3)c3c(n2)CCC3)nc1 [Example 1, 4-(Pyridin-3-yl)-2-(pyridin-2-ylmethoxy)-6,7-dihydro-5H-cyclopenta[b]pyridine dihydrochloride]
2 | 147 | N#Cc1ccc(-c2cc(OCc3ccccn3)nc3c2CCC3)cn1 [Example 4, 5-[2-(Pyridin-2-ylmethoxy)-6,7-dihydro-5H-cyclopenta[b]pyridin-4-yl]pyridine-2-carbonitrile hydrochloride]
3 | 105 | Fc1ccc(COc2cc(-c3cncnc3)c3c(n2)CCC3)c(F)c1 [Example 18, 2-[(2,4-Difluorobenzyl)oxy]-4-(pyrimidin-5-yl)-6,7-dihydro-5H-cyclopenta[b]pyridine]
4 | 36 | Fc1cccc(COc2cc(-c3cncnc3)c3c(n2)CCC3)n1 [Example 24, 2-[(6-Fluoropyridin-2-yl)methoxy]-4-(pyrimidin-5-yl)-6,7-dihydro-5H-cyclopenta[b]pyridine]
5 | 60.6 | Fc1ccc(COc2cc(-c3cncnc3)c3c(n2)CCC3)nc1 [Example 25, 2-[(5-Fluoropyridin-2-yl)methoxy]-4-(pyrimidin-5-yl)-6,7-dihydro-5H-cyclopenta[b]pyridine]
6 | 104 | Cc1cccc(COc2cc(-c3cncnc3)c3c(n2)CCC3)n1 [Example 28, 2-[(6-Methylpyridin-2-yl)methoxy]-4-(pyrimidin-5-yl)-6,7-dihydro-5H-cyclopenta[b]pyridine]
7 | 31 | Fc1cnccc1COc1cc(-c2cncnc2)c2c(n1)CCC2 [Example 32, 2-[(3-Fluoropyridin-4-yl)methoxy]-4-(pyrimidin-5-yl)-6,7-dihydro-5H-cyclopenta[b]pyridine]
8 | 15 | c1csc(COc2cc(-c3cncnc3)c3c(n2)CCC3)c1 [Example 34, 4-(Pyrimidin-5-yl)-2-(thiophen-2-ylmethoxy)-6,7-dihydro-5H-cyclopenta[b]pyridine]
9 | 58 | Clc1ccc(COc2cc(-c3cncnc3)c3c(n2)CCC3)s1 [Example 35, 2-[(5-Chlorothiophen-2-yl)methoxy]-4-(pyrimidin-5-yl)-6,7-dihydro-5H-cyclopenta[b]pyridine]
10 | 79 | N#Cc1ncc(-c2cc(OCc3ccccn3)nc3c2CCC3)cn1 [Example 37, 5-[2-(Pyridin-2-ylmethoxy)-6,7-dihydro-5H-cyclopenta[b]pyridin-4-yl]pyrimidine-2-carbonitrile hydrochloride]
11 | 45 | Cc1ncc(-c2cc(OCc3ccccc3)nc3c2CCC3)cn1 [Example 38, 2-(Benzyloxy)-4-(2-methylpyrimidin-5-yl)-6,7-dihydro-5H-cyclopenta[b]pyridine]
12 | 122 | Cc1ncc(-c2cc(OCc3cccc(F)n3)nc3c2CCC3)cn1 [Example 39, 2-[(6-Fluoropyridin-2-yl)methoxy]-4-(2-methylpyrimidin-5-yl)-6,7-dihydro-5H-cyclopenta[b]pyridine]
13 | 78 | Cc1ncc(-c2cc(OCc3ccc(F)cn3)nc3c2CCC3)cn1 [Example 40, 2-[(5-Fluoropyridin-2-yl)methoxy]-4-(2-methylpyrimidin-5-yl)-6,7-dihydro-5H-cyclopenta[b]pyridine hydrochloride]
14 | 30 | Cc1ncc(-c2cc(OCc3ncccc3F)nc3c2CCC3)cn1 [Example 41, 2-[(3-Fluoropyridin-2-yl)methoxy]-4-(2-methylpyrimidin-5-yl)-6,7-dihydro-5H-cyclopenta[b]pyridine]
15 | 166 | N#Cc1ncc(-c2cc(OCc3ncc(F)cc3F)nc3c2CCC3)cn1 [Example 44, 5-{2-[(3,5-Difluoropyridin-2-yl)methoxy]-6,7-dihydro-5H-cyclopenta[b]pyridin-4-yl}pyrimidine-2-carbonitrile]
16 | 72 | N#Cc1ncc(-c2cc(OCc3cccc(F)n3)nc3c2CCC3)cn1 [Example 48, 5-{2-[(6-Fluoropyridin-2-yl)methoxy]-6,7-dihydro-5H-cyclopenta[b]pyridin-4-yl}pyrimidine-2-carbonitrile]
17 | 55 | N#Cc1ncc(-c2cc(OCc3ccc(F)cn3)nc3c2CCC3)cn1 [Example 49, 5-{2-[(5-Fluoropyridin-2-yl)methoxy]-6,7-dihydro-5H-cyclopenta[b]pyridin-4-yl}pyrimidine-2-carbonitrile]
18 | 176 | N#Cc1ncc(-c2cc(OCc3ncccc3F)nc3c2CCC3)cn1 [Example 50, 5-{2-[(3-Fluoropyridin-2-yl)methoxy]-6,7-dihydro-5H-cyclopenta[b]pyridin-4-yl}pyrimidine-2-carbonitrile]

Row | IC50 [nM] | SMILES
19 | 11.4 | c1ccc(COc2cc(-c3cnccn3)c3c(n2)CCC3)nc1 [Example 53, 4-(Pyrazin-2-yl)-2-(pyridin-2-ylmethoxy)-6,7-dihydro-5H-cyclopenta[b]pyridine hydrochloride]
20 | 20 | N#Cc1cncc(-c2cc(OCc3ccccn3)nc3c2CCC3)n1 [Example 54, 6-[2-(Pyridin-2-ylmethoxy)-6,7-dihydro-5H-cyclopenta[b]pyridin-4-yl]pyrazine-2-carbonitrile hydrochloride]
21 | 348 | CC(C)(O)c1cncc(-c2cc(OCc3ccccn3)nc3c2CCC3)n1 [Example 55, 2-{6-[2-(Pyridin-2-ylmethoxy)-6,7-dihydro-5H-cyclopenta[b]pyridin-4-yl]pyrazin-2-yl}propan-2-ol]
22 | 495 | N#Cc1cccc(COc2cc(-c3cncc(CO)n3)c3c(n2)CCC3)n1 [Example 56, 6-[({4-[6-(Hydroxymethyl)pyrazin-2-yl]-6,7-dihydro-5H-cyclopenta[b]pyridin-2-yl}oxy)methyl]pyridine-2-carbonitrile]
23 | 55.6 | Fc1cccc(-c2cc(OCc3ccccn3)nc3c2CCC3)c1 [Example 58, 4-(3-Fluorophenyl)-2-(pyridin-2-ylmethoxy)-6,7-dihydro-5H-cyclopenta[b]pyridine]
24 | 59.9 | O=[N+]([O-])c1cccc(-c2cc(OCc3ccccn3)nc3c2CCC3)c1 [Example 63, 4-(3-Nitrophenyl)-2-(pyridin-2-ylmethoxy)-6,7-dihydro-5H-cyclopenta[b]pyridine]
25 | 297 | Cc1ccc(-c2cc(OCc3ccccn3)nc3c2CCC3)cc1F [Example 64, 4-(3-Fluoro-4-methylphenyl)-2-(pyridin-2-ylmethoxy)-6,7-dihydro-5H-cyclopenta[b]pyridine]
26 | 108 | N#Cc1ccc(-c2cc(OCc3ccccn3)nc3c2CCC3)cc1F [Example 66, 2-Fluoro-4-[2-(pyridin-2-ylmethoxy)-6,7-dihydro-5H-cyclopenta[b]pyridin-4-yl]benzonitrile]
27 | 92 | Oc1cc(F)cc(-c2cc(OCc3ccccn3)nc3c2CCC3)c1 [Example 68, 3-Fluoro-5-[2-(pyridin-2-ylmethoxy)-6,7-dihydro-5H-cyclopenta[b]pyridin-4-yl]phenol]
28 | 94 | CS(=O)(=O)Oc1cc(F)cc(-c2cc(OCc3ccccn3)nc3c2CCC3)c1 [Example 69, 3-Fluoro-5-[2-(pyridin-2-ylmethoxy)-6,7-dihydro-5H-cyclopenta[b]pyridin-4-yl]phenyl methanesulfonate]
29 | 16.2 | Fc1cc(-c2cc(OCc3ccccn3)nc3c2CCC3)ccn1 [Example 73, 4-(2-Fluoropyridin-4-yl)-2-(pyridin-2-ylmethoxy)-6,7-dihydro-5H-cyclopenta[b]pyridine]
30 | 16.2 | Cc1cccc(COc2cc(-c3cccnc3)c3c(n2)CCCC3)n1 [Example 83, 2-[(6-Methylpyridin-2-yl)methoxy]-4-(pyridin-3-yl)-5,6,7,8-tetrahydroquinoline]
31 | 112 | Cc1ccc(COc2cc(-c3cccnc3)c3c(n2)CCCC3)nc1 [Example 84, 2-[(5-Methylpyridin-2-yl)methoxy]-4-(pyridin-3-yl)-5,6,7,8-tetrahydroquinoline]
32 | 178 | Cc1ccnc(COc2cc(-c3cccnc3)c3c(n2)CCCC3)c1 [Example 85, 2-[(4-Methylpyridin-2-yl)methoxy]-4-(pyridin-3-yl)-5,6,7,8-tetrahydroquinoline]
33 | 15.1 | Fc1cccc(COc2cc(-c3cccnc3)c3c(n2)CCCC3)n1 [Example 86, 2-[(6-Fluoropyridin-2-yl)methoxy]-4-(pyridin-3-yl)-5,6,7,8-tetrahydroquinoline]
34 | 41.4 | COCc1cccc(COc2cc(-c3cccnc3)c3c(n2)CCCC3)n1 [Example 89, 2-{[6-(Methoxymethyl)pyridin-2-yl]methoxy}-4-(pyridin-3-yl)-5,6,7,8-tetrahydroquinoline]
35 | 16.9 | c1cncc(-c2cc(OCc3ncco3)nc3c2CCCC3)c1 [Example 91, 2-(1,3-Oxazol-2-ylmethoxy)-4-(pyridin-3-yl)-5,6,7,8-tetrahydroquinoline]
36 | 40.1 | Cc1coc(COc2cc(-c3cccnc3)c3c(n2)CCCC3)n1 [Example 92, 2-[(4-Methyl-1,3-oxazol-2-yl)methoxy]-4-(pyridin-3-yl)-5,6,7,8-tetrahydroquinoline]

From patent US20150225404A1, “PYRIDINE DERIVATIVE AND MEDICINE” (NIPPON SHINYAKU CO., LTD., priority 2012, published 2015)
